Reference: PubChem BioAssay (NCI)
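These data come from cells grown in 96-well plates and exposed to compound for 48 hours at five concentrations. TGI: total growth inhibition.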

What was measured:
Experiment in all cases: DTP human tumour cell line panel, 48 h
NCI-H460 lung = system: NCI-H460 lung
SN12C renal = system: SN12C renal
SF-539 CNS = system: SF-539 CNS
OVCAR-3 ovarian = system: OVCAR-3 ovarian
TK-10 renal = system: TK-10 renal
M14 melanoma = system: M14 melanoma
HCT-116 colon = system: HCT-116 colon
KM12 colon = system: KM12 colon
SK-MEL-2 melanoma = system: SK-MEL-2 melanoma
RXF 393 renal = system: RXF 393 renal
SF-268 CNS = system: SF-268 CNS
CCRF-CEM leukemia = system: CCRF-CEM leukemia
RPMI-8226 leukemia = system: RPMI-8226 leukemia
786-0 renal = system: 786-0 renal
UACC-257 melanoma = system: UACC-257 melanoma
UACC-62 melanoma = system: UACC-62 melanoma
PC-3 prostate = system: PC-3 prostate
MCF7 breast = system: MCF7 breast
HS 578T breast = system: HS 578T breast

Structure (SMILES)	TGI (NCI-H460 lung) [µM]	TGI (SN12C renal) [µM]	TGI (SF-539 CNS) [µM]	TGI (OVCAR-3 ovarian) [µM]	TGI (TK-10 renal) [µM]	TGI (M14 melanoma) [µM]	TGI (HCT-116 colon) [µM]	TGI (KM12 colon) [µM]	TGI (SK-MEL-2 melanoma) [µM]	TGI (RXF 393 renal) [µM]	TGI (SF-268 CNS) [µM]	TGI (CCRF-CEM leukemia) [µM]	TGI (RPMI-8226 leukemia) [µM]	TGI (786-0 renal) [µM]	TGI (UACC-257 melanoma) [µM]	TGI (UACC-62 melanoma) [µM]	TGI (PC-3 prostate) [µM]	TGI (MCF7 breast) [µM]	TGI (HS 578T breast) [µM]
CCOC(=O)C(C)Sc1nnc(COc2ccc(Cl)cc2)n1-c1ccccc1 (stereo not given)	31.6	32.9	36.9	33.5	69.9	30.9	36.5	41.9	28.4	41.7	34.7	34	45.7	71.2	47.3	31.8			
O=C(c1ccco1)N(C(=S)N1CCN(c2ccccc2)CC1)C1CCCCC1	> 100	> 100	> 100	> 100	> 100	> 100	> 100	> 100	> 100	> 100	> 100	> 100	> 100	> 100	> 100	> 100			
N#COc1ccc(Oc2ccccc2)cc1	> 100	> 100	92.4	> 100	> 100	> 100	> 100	> 100	> 100	> 100	> 100	60	83.5	> 100	> 100	> 100			
CCO/S(=N/S(=O)(=O)c1ccccc1)c1ccccc1[N+](=O)[O-] (stereo not given)	> 100	> 100	> 100	> 100		> 100		> 100	> 100		> 100	> 100	> 100	> 100	> 100	> 100			
Cc1ccc(/C=C/C(=N/NC(=O)N/N=C(/C=C/c2ccc(C)cc2)C(C)C)C(C)C)cc1	> 10	> 10		> 10	> 10	> 10	> 10	> 10	> 10	> 10	> 10	> 10	> 10	> 10	> 10		> 10	> 10	
[N-]=[N+]=NC1(c2ccccc2)C(=O)C(Cl)=C(c2ccccc2)N(c2ccccc2)C1=O (stereo not given)	> 100	> 100	> 100	> 100	> 100	> 100	> 100	> 100	> 100		> 100	> 100		> 100	> 100	> 100			
O=C1c2c(O)cc(O)cc2C(C2OC(CO)C(O)C(O)C2O)c2cc(CO)cc(O)c21 (stereo not given)	> 100	> 100		> 100	> 100	> 100	> 100				> 100		> 100	> 100	> 100	> 100	> 100	> 100	
CCC(=O)NI1OC(=O)c2ccccc21	> 100	> 100	> 100	> 100	> 100	> 100	> 100	> 100	> 100	> 100	> 100	> 100	> 100	> 100	> 100	> 100	> 100	> 100	
CC(C)(C)C1CCC2c3c([nH]c4ncccc34)C3C(=O)N(c4ccccc4)C(=O)C3C2C1 (stereo not given)	> 100	> 100	> 100	> 100	> 100	> 100	> 100	> 100	> 100	> 100	> 100	> 100	> 100	> 100	> 100	> 100			
CCOC(=O)/C(=C\NC(C)(C)C)c1nc2ccccc2[nH]1	37.3	75.6	39.4	35	47.6	39.7	95.2	44.1		59.6	55.9	39.5	39.2	72	35.2	30.1		43.5	45.8
CC(=O)Nc1ccc2c3c(cc(O)c2c1)N(C(=O)CCCCC(=O)N1CC(CCl)c2c1cc(O)c1cc(NC(C)=O)ccc21)CC3CCl (stereo not given)		6.4	1.34		11.9	1.16	> 100	14	0.316	0.41	2.77		0.635	0.992		0.22	> 33.7	0.264	
S=C=Nc1ccc(CSc2nc3ccccc3[nH]2)cc1	40.4	31.3	33.4		38.9		44.5	31.7	34.8	33.5	37.8	80.4	52.5	37.5	34.1	29.4	32		> 100
c1ccc2c(c1)nn1c3ccc4nonc4c3[n-][n+]21	> 100	> 100	> 100	> 100		> 100	> 100	> 100	> 100	> 100		> 100	> 100	> 100	> 100	> 100	> 100	> 100	
COc1cc2c(oc(=O)c3c4occc4cc(OC)c23)c2cccc(OCc3ccccc3)c12	> 100	> 100	> 100	> 100	> 100	> 100	> 100	> 100	> 100	> 100	> 100	> 100	> 100	> 100	> 100	> 100			
COc1ccc2c3c([nH]c(=O)c2c1C(=O)O)-c1ccccc1CC3	> 100	> 100	> 100	> 100	> 100	> 100	> 100	> 100	> 100	> 100	> 100	> 100	> 100	> 100					
CSc1nc(Nc2ccccc2Cl)c2c(N)nn(C)c2n1	> 100	> 100		> 100	> 100	> 100	> 100	> 100	> 100	> 100	> 100	> 100	> 100	> 100	> 100	> 100	> 100		> 100
Cc1c(O)c(OC2OC(CO)C(O)C(O)C2O)cc2c1C=C[C@@H]1[C@@]2(C)C(=O)C[C@]2(C)[C@@H]([C@@](C)(O)C(O)/C=C/C(C)(C)O)[C@H](O)C[C@@]12C (stereo not given in full)	> 100	> 100	> 100	> 100	> 100	> 100	> 100	> 100	> 100	> 100	> 100	> 100		> 100	> 100	> 100	> 100	> 100	
O=C1C2=Cc3ccccc3OC2(O)Oc2ccccc21 (stereo not given)		> 100	> 100	> 100	> 100	> 100	> 100	> 100	> 100	> 100	> 100	> 100	> 100	> 100	> 100	> 100	> 100	> 100	
O=c1[nH]c2cc([N+](=O)[O-])ccc2nc1/C(=N/Nc1ccccc1)C(O)c1ccco1 (stereo not given)	> 100	> 100	> 100			> 100	> 100	> 100	> 100	> 100	> 100	> 100	> 100	> 100	> 100	> 100			
C=C1[C@H]2O[C@H]2[C@@H](OC(C)=O)[C@@]2(C)[C@@H](OC(C)=O)C[C@@H](OC(=O)CCC)[C@@](C)(O)[C@@H]2[C@@H](OC(C)=O)[C@]2(O)[C@@H](C)C(=O)O[C@H]2[C@H]1Cl	> 100	> 100	> 100	> 100	> 100	> 100	> 100	> 100	> 100	> 100	> 100		> 100	> 100	> 100	> 100	> 100	> 100	
COc1ccc2c(c1)CC1COc3cc(OC)ccc3C1O2 (stereo not given)		> 100	> 100	> 100	> 100	> 100	> 100	> 100	> 100		> 100	> 100	> 100	> 100	> 100	> 100	> 100	> 100	
CN(C)C1(N(C)C)Oc2c(c(=O)n(C)c(=O)n2C)C(c2ccc(C(F)(F)F)cc2)C1(F)F (stereo not given)	> 100			> 100	> 100	> 100	> 100	> 100	> 100	> 100	> 100	> 100	> 100	> 100	> 100	> 100	> 100	> 100	
